These results are taken from patent US8614206B2 (Genentech, Inc., priority 2011, dated 2013).

Like-named read-outs stand apart in the source and are kept apart here. Where only a bound is given, the exact number is not on record here.

For one experiment, the target named is PIM1 (Homo sapiens (Human), UniProt P11309). Nature of the experiment: Pim kinase inhibition, PIM1 LC3K (Example 901). It is filed as biochemical.
Another experiment concerns BaF3 parental cells. Nature of the experiment: In vitro cell proliferation, BaF3 parental line + IL3 (CellTiter-Glo). To be noted: Mus musculus, BaF3, BaF3 parental cells with IL-3, incubated overnight. It is filed as cell-based, murine.
For experiment [1], the system named is MM1.S (multiple myeloma) cells. Nature of the experiment: In vitro cell proliferation, MM1.S multiple myeloma cells (CellTiter-Glo, ATP). It counts as cell-based. The note with it: Homo sapiens, MM1.S, 72 h, read-out: Prolif MM1S ATP (EC50). Put shortly:
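BaF3 parental cells (medium with 2 ng/mL mIL-3) seeded at 2 k/well and MM1.S at 10 k/well, then exposed to test compound at 37° C, 5% CO2: BaF3 overnight, MM1.S for 72 hours. Viability read by CellTiter-Glo; IC50/EC50 values calculated.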
A general note: In ATP-based viability assays light output follows the ATP content of the culture.

For a further experiment, the system named is BaF3 PIM1 cells. Nature of the experiment: cells. The note with it: Mus musculus.
Setting [2] is: read-out: Prolif BaF3 + IL3 (IC50).
Where [3] appears, read: BaF3, read-out: Prolif BaF3_PIM1 (IC50), BaF3 PIM1 cells, incubated overnight.
Where [4] appears, read: read-out: Prolif BaF3 IL3 (IC50).
Setting [5] is: BaF3, read-out: Prolif BaF3 PIM1 (IC50), BaF3 PIM1 cells, incubated overnight.

PIM1, sequence (P11309 whole entry): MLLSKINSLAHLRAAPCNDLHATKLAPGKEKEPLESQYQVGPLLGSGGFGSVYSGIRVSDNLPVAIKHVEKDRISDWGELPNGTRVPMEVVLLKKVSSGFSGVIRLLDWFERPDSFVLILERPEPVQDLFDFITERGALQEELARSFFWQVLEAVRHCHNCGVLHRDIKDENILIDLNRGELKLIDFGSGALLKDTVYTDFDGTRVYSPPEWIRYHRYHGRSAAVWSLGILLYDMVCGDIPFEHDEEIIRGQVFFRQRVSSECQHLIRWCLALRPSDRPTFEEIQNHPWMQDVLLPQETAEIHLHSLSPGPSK
Description for BaF3 PIM1 cells: (§1) BaF3 parental line was obtained from the DSMZ repository. BaF3 lines transfected with PIM 1 or PIM2 were generated. Mouse IL-3 was purchased from R&D Systems. G418 was purchased from Clontech. Media for BaF3 parental line contained RPMI, 10% FBS, 2 mM L-Glutamine, 2 ng/mL mIL-3. Media for BaF3 PIM1 & 2 lines contained RPMI, 10% FBS, 2 mM L-Glutamine, 250 μg/mL.
(§2) BaF3, a murine interleukin-3 dependent pro-B cell line, parental cells, BaF3 PIM1 cells, BaF3 PIM2 cells, and MM1.S (multiple myeloma) cells were seeded at 2 k/well, 5 k/well, 5 k/well, and 10 k/well respectively, in a 384-well plate, at 45 μL/well. Test compound was added at 5 μL/well. BaF3 cells (parental and transfected) were incubated overnight, while MM1.S cells were incubated for 72 hours at 37° C., 5% CO2. CELL TITER GLO® Reagent (Promega) was added at 50 μL/well, the plates were incubated for 30 minutes, and their luminescence read on an HT Analyst. IC50/EC50 values for the test compound were calculated.
Description for BaF3 parental cells: as §1, §2

The Ki is the dissociation constant of the complex between target and ligand, obtained from inhibition or displacement. Low values mean higher affinity, high ones lower affinity. The term IC50 denotes the concentration at which inhibition is half-maximal. In general, EC50 refers to the concentration at which the effect is half-maximal. Turning to `COC1CCN(c2c(NC(=O)c3nc(-c4ccccn4)sc3N)cnn2C)CCC1N` (racemic) [Example 322, 5-amino-N-[5-(4-amino-5-methoxy-azepan-1-yl)-1-methyl-pyrazol-4-yl]-2-(2-pyridyl)thiazole-4-carboxamide], the Ki at PIM1 came out at 0.833 nM. In addition, the IC50 is greater than 25000 nM in the experiment with BaF3 parental cells (setting [2]) and 1400 nM in the experiment with BaF3 PIM1 cells (setting [3]). Also, the EC50 in experiment [1] is 123 nM.
The compound `Cn1ncc(NC(=O)c2nc(-c3ccccc3F)sc2N)c1N1CCCC(C)(N)CC1` (racemic) [Example 412, 5-amino-N-[5-(4-amino-4-methyl-azepan-1-yl)-1-methyl-pyrazol-4-yl]-2-(2-fluorophenyl)thiazole-4-carboxamide] registered a Ki on PIM1 of 0.057 nM. Besides, the values for the IC50 in the experiment on BaF3 parental cells (setting [2]) and in the experiment on BaF3 PIM1 cells (setting [3]) were 7100 nM and 1500 nM, respectively. The 50% effective concentration (EC50) in experiment [1] worked out at 1100 nM.
Take `Cn1ncc(NC(=O)c2nc(-c3c(F)cncc3F)sc2N)c1N1CCC(N)CC(F)(F)C1` (racemic) [Example 438, 5-amino-N-[5-(5-amino-3,3-difluoro-azepan-1-yl)-1-methyl-pyrazol-4-yl]-2-(3,5-difluoro-4-pyridyl)thiazole-4-carboxamide]: on PIM1, the affinity, expressed as Ki, was 0.008 nM. Further, the IC50 with BaF3 parental cells (setting [2]) was 20300 nM; in the experiment with BaF3 PIM1 cells (setting [3]), 3.03 nM. Besides, the concentration giving a half-maximal response (EC50) in experiment [1] worked out at 80.6 nM.
On PIM1, `Cn1ncc(NC(=O)c2nc(-c3c(F)cncc3F)sc2N)c1N1CC[C@H](N)[C@@H](F)CC1` (racemic) [Example 439, 5-amino-N-(5-((4S,5S)-4-amino-5-fluoroazepan-1-yl)-1-methyl-1H-pyrazol-4-yl)-2-(3,5-difluoropyridin-4-yl)thiazole-4-carboxamide] had a Ki of 0.121 nM. Also, the values for the IC50 with BaF3 parental cells (setting [2]) and in the experiment with BaF3 PIM1 cells (setting [3]) were 16200 nM and 38.8 nM, respectively. The 50% effective concentration (EC50) in experiment [1] is 3900 nM.
Compound `COC1(C)CC(N)CCN(c2c(NC(=O)c3nc(-c4c(F)cncc4F)sc3N)cnn2C)C1` (racemic) [Example 440, 5-amino-N-[5-(5-amino-3-methoxy-3-methyl-azepan-1-yl)-1-methyl-pyrazol-4-yl]-2-(3,5-difluoro-4-pyridyl)thiazole-4-carboxamide] came in with a Ki at PIM1 of 0.024 nM. The results for the 50% inhibitory concentration (IC50) with BaF3 parental cells (setting [2]) and with BaF3 PIM1 cells (setting [3]) were greater than 25000 nM and 15.2 nM, respectively. In experiment [1], the half-maximal effective concentration (EC50) is 77.4 nM.
Take `COC1(C)CC(N)CCN(c2c(NC(=O)c3nc(-c4ccncc4F)sc3N)cnn2C)C1` (racemic) [Example 441, 5-amino-N-[5-(5-amino-3-methoxy-3-methyl-azepan-1-yl)-1-methyl-pyrazol-4-yl]-2-(3-fluoro-4-pyridyl)thiazole-4-carboxamide]: the Ki on PIM1 is 0.027 nM. Also, the IC50 with BaF3 parental cells (setting [2]) was greater than 25000 nM; in the experiment on BaF3 PIM1 cells (setting [3]), 13.1 nM. The EC50 in experiment [1] is 39.3 nM.
Take `Nc1sc(-c2c(F)cccc2F)nc1C(=O)Nc1cnn(C2CC2)c1N1CCC(N)C(F)CC1` (single isomer, unassigned) [Example 331, 5-amino-N-[5-(4-amino-5-fluoro-azepan-1-yl)-1-cyclopropyl-pyrazol-4-yl]-2-(2,6-difluorophenyl)thiazole-4-carboxamide]: the inhibition constant (Ki) on PIM1 is 0.0647 nM. The figures for the IC50 with BaF3 parental cells (setting [2]) and in the experiment on BaF3 PIM1 cells (setting [3]) were 13400 nM and 152 nM, respectively. In experiment [1], the half-maximal effective concentration (EC50) is 167 nM.
`Cn1ncc(NC(=O)c2nc(-c3ccncc3F)sc2N)c1N1CC[C@H](N)CC(F)(F)C1` (single isomer, unassigned) [Example 446] came in with a Ki on PIM1 of 0.01 nM. The 50% inhibitory concentration (IC50) with BaF3 parental cells (setting [2]) is 23500 nM; with BaF3 PIM1 cells (setting [3]), 4.51 nM. Further, the concentration giving a half-maximal response (EC50) in experiment [1] came to 9200 nM.
Turning to `Cn1ncc(NC(=O)c2nc(-c3c(F)cncc3F)sc2N)c1N1CC[C@H](N)CC(F)(F)C1` (single isomer, unassigned) [Example 454], on PIM1, affinity was put at a Ki of 0.023 nM. The values for the IC50 in the experiment on BaF3 parental cells (setting [2]) and with BaF3 PIM1 cells (setting [3]) were 17900 nM and 2.17 nM, respectively. The EC50 in experiment [1] turned out to be 3700 nM.
Consider `Cn1ncc(NC(=O)c2nc(-c3ccccc3F)sc2N)c1N1CCNC[C@]2(CCO2)C1` (single isomer, unassigned) [Example 480], for which the Ki at PIM1 is 0.045 nM. Also, the 50% inhibitory concentration (IC50) in the experiment with BaF3 parental cells (setting [2]) stood at 7100 nM; in the experiment with BaF3 PIM1 cells (setting [3]), 737 nM. The concentration for a half-maximal effect (EC50) in experiment [1] worked out at 6200 nM.
On to `Cn1ncc(NC(=O)c2nc(-c3c(F)cncc3F)sc2N)c1N1CC[C@H](N)[C@@H](F)CC1` (stereo in doubt) [Example 472, 5-amino-N-[5-[(4S,5S)-4-amino-5-fluoro-azepan-1-yl]-1-methyl-pyrazol-4-yl]-2-(3,5-difluoro-4-pyridyl)thiazole-4-carboxamide], for which affinity at PIM1 was put at a Ki of 0.086 nM. Also, the figures for the IC50 in the experiment with BaF3 parental cells (setting [2]) and with BaF3 PIM1 cells (setting [3]) were 18500 nM and 64.8 nM, respectively. In experiment [1], the concentration giving a half-maximal response (EC50) was found to be 5600 nM.
As to `Cn1ncc(NC(=O)c2nc(-c3c(F)cccc3F)sc2N)c1N1CCC(N)CC(F)(F)C1` (centres unmarked) [Example 121, 5-Amino-N-(5-(5-amino-3,3-difluoroazepan-1-yl)-1-methyl-1H-pyrazol-4-yl)-2-(2,6-difluorophenyl)thiazole-4-carboxamide], the IC50 came to 4800 nM in the experiment on BaF3 parental cells (setting [4]) and 21 nM with BaF3 PIM1 cells (setting [5]). Besides, the EC50 in experiment [1] is 50.2 nM.
As to `Cn1ncc(NC(=O)c2nc(-c3c(F)cccc3F)sc2N)c1N1CC[C@H](N)CC(F)(F)C1` [Example 166, (S)-5-amino-N-(5-(5-amino-3,3-difluoroazepan-1-yl)-1-methyl-1H-pyrazol-4-yl)-2-(2,6-difluorophenyl)thiazole-4-carboxamide], the IC50 amounted to 13400 nM in the experiment on BaF3 parental cells (setting [4]) and 16.5 nM with BaF3 PIM1 cells (setting [5]). In experiment [1], the EC50 was determined as 22.9 nM.
In the case of `Cn1ncc(NC(=O)c2nc(-c3c(F)cccc3F)sc2N)c1N1CC[C@@H](N)CC(F)(F)C1` [Example 167, (R)-5-amino-N-(5-(5-amino-3,3-difluoroazepan-1-yl)-1-methyl-1H-pyrazol-4-yl)-2-(2,6-difluorophenyl)thiazole-4-carboxamide], the 50% inhibitory concentration (IC50) in the experiment on BaF3 parental cells (setting [4]) is greater than 25000 nM; in the experiment with BaF3 PIM1 cells (setting [5]) it was 48.4 nM. Moreover, in experiment [1], the EC50 was 1400 nM.
On PIM1, `Cc1ccncc1-c1nc(C(=O)Nc2cnn(C)c2N2CC[C@@H](N)[C@H](F)CC2)c(N)s1` [Example 428, 5-amino-N-[5-[(4R,5R)-4-amino-5-fluoro-azepan-1-yl]-1-methyl-pyrazol-4-yl]-2-(4-methyl-3-pyridyl)thiazole-4-carboxamide] yielded a Ki of 0.884 nM. Besides, the IC50 with BaF3 parental cells (setting [2]) is greater than 25000 nM; in the experiment with BaF3 PIM1 cells (setting [3]), 6600 nM.
`Cc1c(-c2nc(C(=O)Nc3cnn(C)c3N3CC[C@@H](N)[C@H](F)CC3)c(N)s2)cnn1C` [Example 429, 5-amino-N-[5-[(4R,5R)-4-amino-5-fluoro-azepan-1-yl]-1-methyl-pyrazol-4-yl]-2-(1,5-dimethylpyrazol-4-yl)thiazole-4-carboxamide] came in with a Ki at PIM1 of 0.315 nM. Also, the IC50 was greater than 25000 nM with BaF3 parental cells (setting [2]) and 5300 nM in the experiment with BaF3 PIM1 cells (setting [3]).
`Cn1ncc(NC(=O)c2nc(-c3cccc(C#N)n3)sc2N)c1N1CC[C@@H](N)[C@H](F)CC1` [Example 432, 5-amino-N-[5-[(4R,5R)-4-amino-5-fluoro-azepan-1-yl]-1-methyl-pyrazol-4-yl]-2-(6-cyano-2-pyridyl)thiazole-4-carboxamide]: the affinity on PIM1, expressed as Ki, was 1.44 nM. Moreover, the IC50 amounted to 6300 nM with BaF3 parental cells (setting [2]) and 5800 nM with BaF3 PIM1 cells (setting [3]).
`Cn1ncc(NC(=O)c2nc(-c3ccccc3F)sc2N)c1N1CCCC(C)(N)CC1` (centres unmarked) [Example 433, 5-amino-N-[5-(4-amino-4-methyl-azepan-1-yl)-1-methyl-pyrazol-4-yl]-2-(2-fluorophenyl)thiazole-4-carboxamide] gave a Ki on PIM1 of 0.024 nM. Further, the 50% inhibitory concentration (IC50) turned out to be 11100 nM in the experiment with BaF3 parental cells (setting [2]) and 1300 nM in the experiment on BaF3 PIM1 cells (setting [3]).
For `Cn1ncc(NC(=O)c2nc(-c3c(F)cccc3F)sc2N)c1N1CC[C@@H]2OC(=O)N[C@@H]2CC1` [Example 486, N-[5-[(3aR,8aS)-2-oxo-3a,4,5,7,8,8a-hexahydro-3H-oxazolo[4,5-d]azepin-6-yl]-1-methyl-pyrazol-4-yl]-5-amino-2-(2,6-difluorophenyl)thiazole-4-carboxamide], the inhibitory constant (Ki) at PIM1 stood at 0.058 nM. In addition, the IC50 stood at 11200 nM in the experiment on BaF3 parental cells (setting [2]) and 2300 nM with BaF3 PIM1 cells (setting [3]).
`Cn1ncc(NC(=O)c2nc(-c3c(F)cccc3F)sc2N)c1N1CC[C@@H]2NC(=O)O[C@@H]2CC1` [Example 488, N-[5-[(3aS,8aR)-2-oxo-3a,4,5,7,8,8a-hexahydro-3H-oxazolo[4,5-d]azepin-6-yl]-1-methyl-pyrazol-4-yl]-5-amino-2-(2,6-difluorophenyl)thiazole-4-carboxamide] came in with a Ki at PIM1 of 0.353 nM. Besides, the results for the 50% inhibitory concentration (IC50) with BaF3 parental cells (setting [2]) and in the experiment on BaF3 PIM1 cells (setting [3]) were 5400 nM and 2000 nM, respectively.
For `[2H]C([2H])([2H])n1ncc(NC(=O)c2nc(-c3c(F)cccc3F)sc2N)c1N1CC[C@H](N)CC(F)(F)C1` [Example 493, 5-amino-N-[5-[(5S)-5-amino-3,3-difluoro-azepan-1-yl]-1-(trideuteriomethyl)pyrazol-4-yl]-2-(2,6-difluorophenyl)thiazole-4-carboxamide], the IC50 in the experiment with BaF3 parental cells (setting [2]) was 7800 nM; in the experiment on BaF3 PIM1 cells (setting [3]), 17.7 nM. Besides, the 50% effective concentration (EC50) in experiment [1] was found to be 3000 nM.
With `[2H]C([2H])([2H])n1ncc(NC(=O)c2nc(-c3c(F)cccc3F)sc2N)c1N1CC[C@@H](N)CC(F)(F)C1` [Example 494, 5-amino-N-[5-[(5R)-5-amino-3,3-difluoro-azepan-1-yl]-1-(trideuteriomethyl)pyrazol-4-yl]-2-(2,6-difluorophenyl)thiazole-4-carboxamide], the half-maximal inhibitory concentration (IC50) came out at 8900 nM in the experiment with BaF3 parental cells (setting [2]) and 13.4 nM in the experiment with BaF3 PIM1 cells (setting [3]). In experiment [1], the 50% effective concentration (EC50) is 54.6 nM.
